Results published in ChEMBL document CHEMBL1201862, “PubChem BioAssay data set” (2004).
Several values for one entry are separate records, joined by “and”; a condition that tells them apart may be missing. Equal entries are not always repeated.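 1) Cells in 96-well plates. 2) Compound, 48 h, 5 concentrations. 3) Linear interpolation between surrounding doses. 4) Unreached endpoint = highest concentration. GI50 = concentration required for 50% inhibition of growth.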 Activity calls are given as the source filed them. No stated cut-off is given here; in the data, active = GI50 up to about 1.1 µM and inactive = higher.

Tests used:
Assay in all cases: DTP human tumour cell line panel, 48 h
Malme-3M = system: Malme-3M
A549 = system: A549
OVCAR-8 = system: OVCAR-8
SNB-19 = system: SNB-19
SF-268 = system: SF-268
MDA-MB-231 = system: MDA-MB-231
CCRF-CEM = system: CCRF-CEM
KM12 = system: KM12
SW-620 = system: SW-620
K562 = system: K562
SNB-78 = system: SNB-78
HOP-62 = system: HOP-62
Hs-578T = system: Hs-578T
SK-OV-3 = system: SK-OV-3
HL-60 = system: HL-60
MDA-MB-435 = system: MDA-MB-435
M19-MEL = system: M19-MEL
PC-3 = system: PC-3
XF498 = system: XF498
SN12C = system: SN12C

Measured: GI50

COC(=O)N/N=C(/CC1(O)C(=O)Nc2ccc([N+](=O)[O-])cc21)c1ccccc1 (stereo not given)
inactive: Malme-3M 33 µM | A549 63.1 µM | OVCAR-8 29.4 µM | SNB-19 38.9 µM | SF-268 45.4 µM | MDA-MB-231 18.3 µM | CCRF-CEM 29.6 µM | KM12 34.4 µM | SW-620 37.8 µM | K562 40.7 µM | SNB-78 20.9 µM | HOP-62 31 µM | Hs-578T 20.8 µM | SK-OV-3 66.4 µM | HL-60 35 µM | MDA-MB-435 20.8 µM | M19-MEL 66.5 µM | PC-3 38.8 µM | XF498 19.4 µM | SN12C > 74 µM

COc1cc(NC(C)CCCN)c2ncccc2c1 (stereo not given) [PRIMAQUINE PHOSPHATE]
inactive: A549 > 100 µM | OVCAR-8 70.6 µM and 63.1 µM | SF-268 94.4 µM and 79.3 µM | MDA-MB-231 43.7 µM | CCRF-CEM 26.7 µM and 45.8 µM | KM12 > 81.5 µM and 73.3 µM | SW-620 52.2 µM and 73.8 µM | K562 28.9 µM and 20.9 µM | SNB-78 > 100 µM | Hs-578T 39.4 µM | HL-60 8.17 µM and 10.4 µM | MDA-MB-435 38 µM | M19-MEL 47.5 µM | PC-3 33.6 µM | XF498 35 µM
